Source: PMC12736255, “Reinvestigating Pyrrol-2-One-Based Compounds: From Antimicrobial Agents to Promising Antitumor Candidates” (Pharmaceuticals, 2025)
Marks after values point to notes of the source that are not given here.

Legend:
Test in all cases: NCI-60 single-dose screen
EKVX = format: cell-based, human; settings: 10^–5 M; for inhibition at 10 µM: Homo sapiens, read-out: GI (%)
From the text: (§1) In the next step, all synthesized compounds were electronically submitted and accepted for testing to the National Cancer Institute (NCI) platform, for the single dose (10^−5 M) screening against a panel of 60 human tumor cell lines, representing leukemia, melanoma, and cancers of the lung, colon, central nervous system, ovary, kidney, prostate, and breast. The results are summarized in Table 2, with the best values highlighted in red (Figures S1–S14).

NCI-H226 = format: cell-based, human; settings: NCI-H226, 10^–5 M; for inhibition at 10 µM: Homo sapiens, read-out: GI (%)
From the text: as §1

786-0 = format: cell-based; settings: Homo sapiens; 786-0, 10^–5 M; read-out: GI (%)
From the text: as §1

A498 = format: cell-based; settings: Homo sapiens; A498, 10^–5 M; read-out: GI (%)
From the text: as §1

A549/ATCC = format: cell-based; settings: Homo sapiens, 10^–5 M, read-out: GI (%)
From the text: as §1

ACHN = format: cell-based; settings: Homo sapiens, 10^–5 M, read-out: GI (%)
From the text: as §1

CAKI-1 = format: cell-based; settings: Homo sapiens; CAKI-1, 10^–5 M; read-out: GI (%)
From the text: as §1

CCRF-CEM = format: cell-based; settings: Homo sapiens, 10^–5 M, read-out: GI (%)
From the text: as §1

COLO205 = format: cell-based; settings: Homo sapiens, COLO 205; COLO205, 10^–5 M; read-out: GI (%)
From the text: as §1

DU-145 = format: cell-based; settings: Homo sapiens; DU-145, 10^–5 M; read-out: GI (%)
From the text: as §1

HCC-2998 = format: cell-based; settings: Homo sapiens; HCC-2998, 10^–5 M; read-out: GI (%)
From the text: as §1

HCT-116 = format: cell-based; settings: Homo sapiens; HCT-116, 10^–5 M; read-out: GI (%)
From the text: as §1

HL-60(TB) = format: cell-based; settings: Homo sapiens, 10^–5 M, read-out: GI (%)
From the text: as §1

HOP-92 = format: cell-based; settings: Homo sapiens; HOP-92, 10^–5 M; read-out: GI (%)
From the text: as §1

IGROV1 = format: cell-based; settings: Homo sapiens, IGROV-1; IGROV1, 10^–5 M; read-out: GI (%)
From the text: as §1

KM12 = format: cell-based; settings: Homo sapiens; KM12, 10^–5 M; read-out: GI (%)
From the text: as §1

LOX IMVI = format: cell-based; settings: Homo sapiens, 10^–5 M, read-out: GI (%)
From the text: as §1

MALME-3M = format: cell-based; settings: Homo sapiens, 10^–5 M, read-out: GI (%)
From the text: as §1

MDA-MB-231/ATCC = format: cell-based; settings: Homo sapiens, 10^–5 M, read-out: GI (%)
From the text: as §1

MOLT-4 = format: cell-based; settings: Homo sapiens; MOLT-4, 10^–5 M; read-out: GI (%)
From the text: as §1

NCI-H23 = format: cell-based; settings: Homo sapiens; NCI-H23, 10^–5 M; read-out: GI (%)
From the text: as §1

NCI-H322M = format: cell-based; settings: Homo sapiens, 10^–5 M, read-out: GI (%)
From the text: as §1

NCI/ADR-RES = format: cell-based; settings: Homo sapiens, 10^–5 M, read-out: GI (%)
From the text: as §1

OVCAR-3 = format: cell-based; settings: Homo sapiens; OVCAR-3, 10^–5 M; read-out: GI (%)
From the text: as §1

OVCAR-4 = format: cell-based; settings: Homo sapiens; OVCAR-4, 10^–5 M; read-out: GI (%)
From the text: as §1

OVCAR-5 = format: cell-based; settings: Homo sapiens; OVCAR-5, 10^–5 M; read-out: GI (%)
From the text: as §1

PC-3 = format: cell-based; settings: Homo sapiens, PC-3, PC-3, 10^–5 M; read-out: GI (%)
From the text: as §1

RPMI-8226 = format: cell-based; settings: Homo sapiens; RPMI-8226, 10^–5 M; read-out: GI (%)
From the text: as §1

SF-268 = format: cell-based; settings: Homo sapiens; SF-268, 10^–5 M; read-out: GI (%)
From the text: as §1

SK-MEL-28 = format: cell-based; settings: Homo sapiens; SK-MEL-28, 10^–5 M; read-out: GI (%)
From the text: as §1

SK-MEL-2 = format: cell-based; settings: Homo sapiens; SK-MEL-2, 10^–5 M; read-out: GI (%)
From the text: as §1

SK-OV-3 = format: cell-based; settings: Homo sapiens; SK-OV-3, 10^–5 M; read-out: GI (%)
From the text: as §1

SNB-19 = format: cell-based; settings: Homo sapiens; SNB-19, 10^–5 M; read-out: GI (%)
From the text: as §1

SW-620 = format: cell-based; settings: Homo sapiens; SW-620, 10^–5 M; read-out: GI (%)
From the text: as §1

T-47D = format: cell-based; settings: Homo sapiens, T47D, 10^–5 M, read-out: GI (%)
From the text: as §1

TK-10 = format: cell-based; settings: Homo sapiens; TK-10, 10^–5 M; read-out: GI (%)
From the text: as §1

UACC-257 = format: cell-based; settings: Homo sapiens; UACC-257, 10^–5 M; read-out: GI (%)
From the text: as §1

UACC-62 = format: cell-based; settings: Homo sapiens; UACC-62, 10^–5 M; read-out: GI (%)
From the text: as §1

| SMILES | inhibition at 10 µM (EKVX) | inhibition at 10 µM (NCI-H226) | inhibition at 10 µM (A498) | inhibition at 10 µM (A549/ATCC) | inhibition at 10 µM (CAKI-1) | inhibition at 10 µM (CCRF-CEM) | inhibition at 10 µM (COLO205) | inhibition at 10 µM (DU-145) | inhibition at 10 µM (HCC-2998) | inhibition at 10 µM (HCT-116) | inhibition at 10 µM (HL-60(TB)) | inhibition at 10 µM (HOP-92) | inhibition at 10 µM (IGROV1) | inhibition at 10 µM (KM12) | inhibition at 10 µM (LOX IMVI) | inhibition at 10 µM (MALME-3M) | inhibition at 10 µM (MDA-MB-231/ATCC) | inhibition at 10 µM (MOLT-4) | inhibition at 10 µM (NCI-H23) | inhibition at 10 µM (NCI-H322M) | other results |
| --- | --- | --- | --- | --- | --- | --- | --- | --- | --- | --- | --- | --- | --- | --- | --- | --- | --- | --- | --- | --- | --- |
| O=C1C(Nc2ccc(I)cc2)=CC(c2ccc(F)cc2)N1c1ccc(I)cc1 (centres unmarked) [3b] | 24% | 4% | 21% | 13% | 13% | 74% | 27% | 9% | 0% | 21% | 35% | 36% | 7% | 26% | 0% | 6% | 6% | 66% | 8% | 10% | inhibition at 10 µM (786-0): 27%; inhibition at 10 µM (ACHN): 35%; inhibition at 10 µM (NCI/ADR-RES): 9%; inhibition at 10 µM (OVCAR-3): 9%; inhibition at 10 µM (OVCAR-4): 38%; inhibition at 10 µM (OVCAR-5): 0%; inhibition at 10 µM (PC-3): 0%; inhibition at 10 µM (RPMI-8226): 35%; inhibition at 10 µM (SF-268): 68%; inhibition at 10 µM (SK-MEL-28): 8%; inhibition at 10 µM (SK-MEL-2): 31%; inhibition at 10 µM (SK-OV-3): 12%; inhibition at 10 µM (SNB-19): 8%; inhibition at 10 µM (SW-620): 24%; inhibition at 10 µM (T-47D): 32%; inhibition at 10 µM (TK-10): 27%; inhibition at 10 µM (UACC-257): 8%; inhibition at 10 µM (UACC-62): 0% |
| O=C1C(Nc2ccc(I)cc2)=CC(c2ccc(O)cc2)N1c1ccc(I)cc1 (centres unmarked) [3g] | 64% | 47% | 48% | 22% | 41% | 94% | 42% | 58% | 53% | 61% | 75% | 66% | 27% | 80% | 44% | 83% | 44% | 100% | 45% | 20% | inhibition at 10 µM (NCI/ADR-RES): 44%; inhibition at 10 µM (OVCAR-3): 59%; inhibition at 10 µM (OVCAR-4): 85%; inhibition at 10 µM (OVCAR-5): 24%; inhibition at 10 µM (PC-3): 73%; inhibition at 10 µM (RPMI-8226): 100%; inhibition at 10 µM (SF-268): 35%; inhibition at 10 µM (SK-MEL-28): 42%; inhibition at 10 µM (SK-MEL-2): 56%; inhibition at 10 µM (SK-OV-3): 25%; inhibition at 10 µM (SNB-19): 17%; inhibition at 10 µM (SW-620): 56%; inhibition at 10 µM (T-47D): 80%; inhibition at 10 µM (TK-10): 43%; inhibition at 10 µM (UACC-257): 42%; inhibition at 10 µM (UACC-62): 33% |
| O=C1C(Nc2ccc(I)cc2)=CC(c2ccc(C(F)(F)F)cc2)N1c1ccc(I)cc1 (centres unmarked) [3e] | 100% | 100% | 100% | 30% | 91% | 100% | 61% | 28% | 0% | 58% | 51% | 62% | 12% | 35% | 7% | 78% | 62% | 75% | 11% | 97% | GI (%) (EKVX): 100 ^d %; GI (%) (NCI-H226): 100 ^e %; inhibition at 10 µM (786-0): 76%; inhibition at 10 µM (ACHN): 100%; inhibition at 10 µM (NCI/ADR-RES): 35%; inhibition at 10 µM (OVCAR-3): 72%; inhibition at 10 µM (OVCAR-4): 100%; inhibition at 10 µM (OVCAR-5): 18%; inhibition at 10 µM (PC-3): 26%; inhibition at 10 µM (RPMI-8226): 60%; inhibition at 10 µM (SF-268): 100%; inhibition at 10 µM (SK-MEL-28): 31%; inhibition at 10 µM (SK-MEL-2): 100%; inhibition at 10 µM (SK-OV-3): 50%; inhibition at 10 µM (SNB-19): 71%; inhibition at 10 µM (SW-620): 47%; inhibition at 10 µM (T-47D): 100%; inhibition at 10 µM (TK-10): 100%; inhibition at 10 µM (UACC-257): 100%; inhibition at 10 µM (UACC-62): 12% |
| COc1cc(OC)c(C2C=C(Nc3ccc(I)cc3)C(=O)N2c2ccc(I)cc2)cc1OC (centres unmarked) [3k] | 0% | 0% | 0% | 3% | 15% | 0% | 0% | 0% | 5% | 4% | 2% | 0% | 2% | 2% | 5% | 0% | 0% | 0% | 0% | 4% | inhibition at 10 µM (786-0): 3%; inhibition at 10 µM (ACHN): 0%; inhibition at 10 µM (NCI/ADR-RES): 0%; inhibition at 10 µM (OVCAR-3): 0%; inhibition at 10 µM (OVCAR-4): 3%; inhibition at 10 µM (OVCAR-5): 0%; inhibition at 10 µM (PC-3): 0%; inhibition at 10 µM (RPMI-8226): 14%; inhibition at 10 µM (SF-268): 1%; inhibition at 10 µM (SK-MEL-28): 0%; inhibition at 10 µM (SK-MEL-2): 0%; inhibition at 10 µM (SK-OV-3): 0%; inhibition at 10 µM (SNB-19): 0%; inhibition at 10 µM (SW-620): 0%; inhibition at 10 µM (T-47D): 8%; inhibition at 10 µM (TK-10): 1%; inhibition at 10 µM (UACC-257): 0%; inhibition at 10 µM (UACC-62): 0% |
| COc1ccccc1C1C=C(Nc2ccc(I)cc2)C(=O)N1c1ccc(I)cc1 (centres unmarked) [3i] | 49% | 36% | 6% | 6% | 28% | 0% | 0% | 13% | 21% | 3% | 0% | 20% | 57% | 9% | 2% | 45% | 25% | 17% | 30% | 0% | inhibition at 10 µM (NCI/ADR-RES): 3%; inhibition at 10 µM (OVCAR-3): 46%; inhibition at 10 µM (OVCAR-4): 60%; inhibition at 10 µM (OVCAR-5): 0%; inhibition at 10 µM (PC-3): 15%; inhibition at 10 µM (RPMI-8226): 32%; inhibition at 10 µM (SF-268): 24%; inhibition at 10 µM (SK-MEL-28): 12%; inhibition at 10 µM (SK-MEL-2): 44%; inhibition at 10 µM (SK-OV-3): 19%; inhibition at 10 µM (SNB-19): 0%; inhibition at 10 µM (SW-620): 14%; inhibition at 10 µM (T-47D): 39%; inhibition at 10 µM (TK-10): 30%; inhibition at 10 µM (UACC-257): 13%; inhibition at 10 µM (UACC-62): 21% |
